Test results as given in PubChem BioAssay (NCI).
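48-hour exposure; five concentrations; linearly interpolated endpoints. TGI: total growth inhibition.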

What was measured:
Experiment in all cases: NCI tumour cell line growth inhibition, 48 h
SK-OV-3 ovarian = test system: SK-OV-3 ovarian
UO-31 renal = test system: UO-31 renal
COLO 205 colon = test system: COLO 205 colon
OVCAR-5 ovarian = test system: OVCAR-5 ovarian
OVCAR-3 ovarian = test system: OVCAR-3 ovarian
U251 CNS = test system: U251 CNS
CAKI-1 renal = test system: CAKI-1 renal
TK-10 renal = test system: TK-10 renal
EKVX NSCLC = test system: EKVX NSCLC
PC-3 prostate = test system: PC-3 prostate
A498 renal = test system: A498 renal
RPMI-8226 leukemia = test system: RPMI-8226 leukemia
MDA-MB-435 = test system: MDA-MB-435
HT29 colon = test system: HT29 colon
OVCAR-4 ovarian = test system: OVCAR-4 ovarian
MDA-N = test system: MDA-N
HL-60(TB) leukemia = test system: HL-60(TB) leukemia
SR leukemia = test system: SR leukemia
NCI-H23 lung = test system: NCI-H23 lung
K-562 leukemia = test system: K-562 leukemia
ACHN renal = test system: ACHN renal
OVCAR-8 ovarian = test system: OVCAR-8 ovarian
MDA-MB-231 breast = test system: MDA-MB-231 breast
HOP-92 NSCLC = test system: HOP-92 NSCLC
UACC-62 melanoma = test system: UACC-62 melanoma
SK-MEL-28 melanoma = test system: SK-MEL-28 melanoma
MOLT-4 leukemia = test system: MOLT-4 leukemia
SF-539 CNS = test system: SF-539 CNS
IGROV1 ovarian = test system: IGROV1 ovarian
BT-549 breast = test system: BT-549 breast
NCI-H522 lung = test system: NCI-H522 lung
HCT-15 colon = test system: HCT-15 colon
NCI-H226 lung = test system: NCI-H226 lung
786-0 renal = test system: 786-0 renal
MCF7 breast = test system: MCF7 breast
SW-620 colon = test system: SW-620 colon
CCRF-CEM leukemia = test system: CCRF-CEM leukemia
SNB-75 CNS = test system: SNB-75 CNS
UACC-257 melanoma = test system: UACC-257 melanoma
LOX IMVI melanoma = test system: LOX IMVI melanoma
SF-268 CNS = test system: SF-268 CNS
HCT-116 colon = test system: HCT-116 colon
DU-145 prostate = test system: DU-145 prostate
MALME-3M melanoma = test system: MALME-3M melanoma
NCI/ADR-RES ovarian = test system: NCI/ADR-RES ovarian
M14 melanoma = test system: M14 melanoma
SK-MEL-2 melanoma = test system: SK-MEL-2 melanoma
SNB-19 CNS = test system: SNB-19 CNS
A549 NSCLC = test system: A549 NSCLC
HS 578T breast = test system: HS 578T breast
SK-MEL-5 melanoma = test system: SK-MEL-5 melanoma
KM12 colon = test system: KM12 colon
RXF 393 renal = test system: RXF 393 renal
SF-295 CNS = test system: SF-295 CNS
HOP-62 NSCLC = test system: HOP-62 NSCLC
HCC-2998 colon = test system: HCC-2998 colon
NCI-H460 lung = test system: NCI-H460 lung
SN12C renal = test system: SN12C renal

CC(=O)/C=c1\[nH]/c(=C\C=C\c2ccccc2)c(=O)n1/C=C1\C(=O)Oc2ccccc2C1=O
TGI (SK-OV-3 ovarian): > 100 µM | TGI (UO-31 renal): > 100 µM | TGI (COLO 205 colon): > 100 µM | TGI (OVCAR-5 ovarian): > 100 µM | TGI (OVCAR-3 ovarian): > 100 µM | TGI (U251 CNS): > 100 µM | TGI (CAKI-1 renal): > 100 µM | TGI (TK-10 renal): > 100 µM | TGI (EKVX NSCLC): > 100 µM | TGI (PC-3 prostate): > 100 µM | TGI (A498 renal): > 100 µM | TGI (RPMI-8226 leukemia): > 100 µM | TGI (MDA-MB-435): > 100 µM | TGI (HT29 colon): > 100 µM | TGI (OVCAR-4 ovarian): > 100 µM | TGI (MDA-N): > 100 µM | TGI (HL-60(TB) leukemia): > 100 µM | TGI (SR leukemia): > 100 µM | TGI (NCI-H23 lung): > 100 µM | TGI (K-562 leukemia): > 100 µM | TGI (ACHN renal): > 100 µM | TGI (OVCAR-8 ovarian): > 100 µM | TGI (MDA-MB-231 breast): > 100 µM | TGI (HOP-92 NSCLC): > 100 µM | TGI (UACC-62 melanoma): > 100 µM | TGI (SK-MEL-28 melanoma): > 100 µM | TGI (MOLT-4 leukemia): > 100 µM | TGI (SF-539 CNS): > 100 µM | TGI (IGROV1 ovarian): > 100 µM | TGI (BT-549 breast): > 100 µM | TGI (NCI-H522 lung): > 100 µM | TGI (HCT-15 colon): > 100 µM | TGI (NCI-H226 lung): > 100 µM | TGI (786-0 renal): > 100 µM | TGI (MCF7 breast): > 100 µM | TGI (SW-620 colon): > 100 µM | TGI (CCRF-CEM leukemia): > 100 µM | TGI (SNB-75 CNS): > 100 µM | TGI (UACC-257 melanoma): > 100 µM | TGI (LOX IMVI melanoma): > 100 µM | TGI (SF-268 CNS): > 100 µM | TGI (HCT-116 colon): > 100 µM | TGI (DU-145 prostate): > 100 µM | TGI (MALME-3M melanoma): > 100 µM | TGI (NCI/ADR-RES ovarian): > 100 µM | TGI (M14 melanoma): > 100 µM | TGI (SK-MEL-2 melanoma): > 100 µM | TGI (SNB-19 CNS): > 100 µM | TGI (A549 NSCLC): > 100 µM | TGI (HS 578T breast): > 100 µM | TGI (SK-MEL-5 melanoma): > 100 µM | TGI (KM12 colon): > 100 µM

CCCCCCN1CCc2c(C)c(C#N)c3nc4ccccc4n3c21
TGI (SK-OV-3 ovarian): > 100 µM | TGI (UO-31 renal): > 100 µM | TGI (COLO 205 colon): > 100 µM | TGI (RXF 393 renal): > 100 µM | TGI (OVCAR-5 ovarian): > 100 µM | TGI (OVCAR-3 ovarian): > 100 µM | TGI (U251 CNS): > 100 µM | TGI (TK-10 renal): > 100 µM | TGI (SF-295 CNS): > 100 µM | TGI (HOP-62 NSCLC): > 100 µM | TGI (PC-3 prostate): > 100 µM | TGI (A498 renal): > 100 µM | TGI (HCC-2998 colon): > 100 µM | TGI (MDA-MB-435): 93.8 µM | TGI (HT29 colon): > 100 µM | TGI (OVCAR-4 ovarian): > 100 µM | TGI (MDA-N): > 100 µM | TGI (HL-60(TB) leukemia): > 100 µM | TGI (SR leukemia): > 100 µM | TGI (NCI-H23 lung): > 100 µM | TGI (K-562 leukemia): > 100 µM | TGI (ACHN renal): > 100 µM | TGI (OVCAR-8 ovarian): > 100 µM | TGI (MDA-MB-231 breast): > 100 µM | TGI (HOP-92 NSCLC): > 100 µM | TGI (UACC-62 melanoma): > 100 µM | TGI (SK-MEL-28 melanoma): > 100 µM | TGI (SF-539 CNS): > 100 µM | TGI (IGROV1 ovarian): > 100 µM | TGI (BT-549 breast): > 100 µM | TGI (NCI-H522 lung): > 100 µM | TGI (HCT-15 colon): > 100 µM | TGI (NCI-H226 lung): > 100 µM | TGI (786-0 renal): > 100 µM | TGI (MCF7 breast): 41.5 µM | TGI (SW-620 colon): > 100 µM | TGI (SNB-75 CNS): > 100 µM | TGI (UACC-257 melanoma): > 100 µM | TGI (LOX IMVI melanoma): > 100 µM | TGI (SF-268 CNS): > 100 µM | TGI (HCT-116 colon): > 100 µM | TGI (DU-145 prostate): > 100 µM | TGI (MALME-3M melanoma): > 100 µM | TGI (NCI/ADR-RES ovarian): > 100 µM | TGI (M14 melanoma): > 100 µM | TGI (SK-MEL-2 melanoma): > 100 µM | TGI (SNB-19 CNS): > 100 µM | TGI (A549 NSCLC): > 100 µM | TGI (NCI-H460 lung): > 100 µM | TGI (SN12C renal): > 100 µM | TGI (HS 578T breast): 75.6 µM | TGI (SK-MEL-5 melanoma): > 100 µM

O=C1Nc2c(Cl)cc(Cl)cc2C1=O
TGI (SK-OV-3 ovarian): > 100 µM | TGI (UO-31 renal): 44.9 µM | TGI (COLO 205 colon): 50.8 µM | TGI (RXF 393 renal): 28.2 µM | TGI (OVCAR-5 ovarian): 40.7 µM | TGI (OVCAR-3 ovarian): 52.5 µM | TGI (U251 CNS): 55.2 µM | TGI (CAKI-1 renal): 35.4 µM | TGI (TK-10 renal): > 100 µM | TGI (EKVX NSCLC): 29.6 µM | TGI (SF-295 CNS): 31.8 µM | TGI (HOP-62 NSCLC): 40.4 µM | TGI (PC-3 prostate): > 100 µM | TGI (A498 renal): 53.4 µM | TGI (HCC-2998 colon): 83.4 µM | TGI (MDA-MB-435): 15.2 µM | TGI (HT29 colon): > 100 µM | TGI (OVCAR-4 ovarian): 33.1 µM | TGI (MDA-N): 21.8 µM | TGI (HL-60(TB) leukemia): 26.7 µM | TGI (SR leukemia): 39.4 µM | TGI (NCI-H23 lung): 48.7 µM | TGI (K-562 leukemia): > 100 µM | TGI (ACHN renal): > 100 µM | TGI (OVCAR-8 ovarian): 55.8 µM | TGI (MDA-MB-231 breast): 45.9 µM | TGI (HOP-92 NSCLC): 57.5 µM | TGI (UACC-62 melanoma): 30.2 µM | TGI (SK-MEL-28 melanoma): 35.4 µM | TGI (MOLT-4 leukemia): 48.6 µM | TGI (SF-539 CNS): 34.4 µM | TGI (IGROV1 ovarian): 50.3 µM | TGI (BT-549 breast): 35.1 µM | TGI (HCT-15 colon): 47.5 µM | TGI (NCI-H226 lung): 46.6 µM | TGI (786-0 renal): 39.5 µM | TGI (MCF7 breast): 39.6 µM | TGI (SW-620 colon): 41.5 µM | TGI (CCRF-CEM leukemia): 72.9 µM | TGI (SNB-75 CNS): 28.6 µM | TGI (UACC-257 melanoma): 35.1 µM | TGI (LOX IMVI melanoma): 35.5 µM | TGI (HCT-116 colon): 40.5 µM | TGI (MALME-3M melanoma): 7.88 µM | TGI (NCI/ADR-RES ovarian): 54.5 µM | TGI (M14 melanoma): 38.6 µM | TGI (SK-MEL-2 melanoma): 29.7 µM | TGI (SNB-19 CNS): > 100 µM | TGI (A549 NSCLC): 35.9 µM | TGI (NCI-H460 lung): 47.6 µM | TGI (SN12C renal): 32.2 µM | TGI (HS 578T breast): 37.6 µM | TGI (SK-MEL-5 melanoma): 28.8 µM | TGI (KM12 colon): > 100 µM
